PMC5234074 (2017)

Columns and labels:
[1] = test system: EC-108 (thiC 1-108 nascent transcript) (RNA, riboswitch) UAAUUUCUUGUCGGAGUGCCUUAACUGGCUGAGACCGUUUAUUCGGGAUCCGCGGAACCUGAUCAGGCUAAUACCUGCGAAGGGAACAAGAGUUAAUCUGCUAUCGCA; experiment: RNase H cleavage of stalled elongation complex, P1 probe; conditions: 20 mM MgCl2, 20 mM NaCl (transcription); 20 mM MgCl2, 100 mM KCl (RNase H step); Tris-HCl pH 8.0, 37 °C; 10 μM TPP; cleavage ratio 6.7; RNAP bound
[2] = test system: EC-100 (thiC 1-100 nascent transcript) (RNA, riboswitch) UAAUUUCUUGUCGGAGUGCCUUAACUGGCUGAGACCGUUUAUUCGGGAUCCGCGGAACCUGAUCAGGCUAAUACCUGCGAAGGGAACAAGAGUUAAUCUG; experiment: as above; conditions: 20 mM MgCl2, 20 mM NaCl (transcription); 20 mM MgCl2, 100 mM KCl (RNase H step); Tris-HCl pH 8.0, 37 °C; 10 μM TPP; cleavage ratio 1.3; RNAP bound
[3] = test system: 158 nt thiC transcript (without RNAP) (RNA, riboswitch) UAAUUUCUUGUCGGAGUGCCUUAACUGGCUGAGACCGUUUAUUCGGGAUCCGCGGAACCUGAUCAGGCUAAUACCUGCGAAGGGAACAAGAGUUAAUCUGCUAUCGCAUCGCCCCUGCGGCGAUCGUCUCUUGCUUCAUCCGUCGUCUGACAAGCCAC; experiment: RNase H cleavage of free transcript; conditions: 20 mM MgCl2, 20 mM NaCl (transcription); 20 mM MgCl2, 100 mM KCl (RNase H step); Tris-HCl pH 8.0, 37 °C; 10 μM TPP; cleavage ratio 3.4; less efficient than EC-158
[4] = test system: EC-197 (thiC 1-197 nascent transcript) (RNA, riboswitch) UAAUUUCUUGUCGGAGUGCCUUAACUGGCUGAGACCGUUUAUUCGGGAUCCGCGGAACCUGAUCAGGCUAAUACCUGCGAAGGGAACAAGAGUUAAUCUGCUAUCGCAUCGCCCCUGCGGCGAUCGUCUCUUGCUUCAUCCGUCGUCUGACAAGCCACGUCCUUAACUUUUUGGAAUGAGCUAUGUCUGCAACAAAA; experiment: RNase H cleavage of stalled elongation complex, P1 probe; conditions: 20 mM MgCl2, 20 mM NaCl (transcription); 20 mM MgCl2, 100 mM KCl (RNase H step); Tris-HCl pH 8.0, 37 °C; 10 μM TPP; RNAP bound; sensing partially recovered
[5] = test system: EC-207 (thiC 1-207 nascent transcript) (RNA, riboswitch) UAAUUUCUUGUCGGAGUGCCUUAACUGGCUGAGACCGUUUAUUCGGGAUCCGCGGAACCUGAUCAGGCUAAUACCUGCGAAGGGAACAAGAGUUAAUCUGCUAUCGCAUCGCCCCUGCGGCGAUCGUCUCUUGCUUCAUCCGUCGUCUGACAAGCCACGUCCUUAACUUUUUGGAAUGAGCUAUGUCUGCAACAAAACUGACCCGCC; experiment: as above; conditions: 20 mM MgCl2, 20 mM NaCl (transcription); 20 mM MgCl2, 100 mM KCl (RNase H step); Tris-HCl pH 8.0, 37 °C; 10 μM TPP; RNAP bound; sensing partially recovered
[6] = test system: 143 nt thiC transcript (without RNAP) (RNA, riboswitch) UAAUUUCUUGUCGGAGUGCCUUAACUGGCUGAGACCGUUUAUUCGGGAUCCGCGGAACCUGAUCAGGCUAAUACCUGCGAAGGGAACAAGAGUUAAUCUGCUAUCGCAUCGCCCCUGCGGCGAUCGUCUCUUGCUUCAUCCGU; experiment: RNase H cleavage of free transcript; conditions: 20 mM MgCl2, 20 mM NaCl (transcription); 20 mM MgCl2, 100 mM KCl (RNase H step); Tris-HCl pH 8.0, 37 °C; 10 μM TPP; cleavage ratio higher than 158 nt transcript

binding [1]: yes
binding [2]: weak
binding [3]: yes
binding [4]: yes
binding [5]: yes
binding [6]: yes
SMILES: Cc1ncc(C[n+]2csc(CCOP(=O)(O)OP(=O)(O)O)c2C)c(N)n1
